Data: US4046762A, “Esters and amides of 3-aryl-1,4 benzodioxan-2-carboxylic acids” (Instituto Luso Farmaco D'Italia S.r.l., priority 1972, dated 1977)
Where a name gives a salt, the structure may show the parent alone.

Experiments:
Oedema from charragenin = test: Oedema from charragenin, rat; format: in vivo; details: i.p.
Antituxive activity = test: Antituxive activity; format: in vivo; details: for ED50: read-out: Antituxive activity, DE50
[1] = system: Stretching from acetic acid; test: Stretching from acetic acid; format: in vivo; details: for ED50: read-out: Stretching from acetic acid, DE50
[2] = Indicative acute toxicity, mouse (intraperitoneally); details: in vivo, ip, read-out: Indicative acute toxicity, DL50
tail of mouse = test: Local anaesthetic activity, tail of mouse; format: in vivo
sciatic nerve of rat = test: Local anaesthetic activity, sciatic nerve of rat
Antipyresis = test: Antipyresis, rat; format: in vivo; details: 65 mg/kg
central nervous system [3] = test: Activity on central nervous system, mouse: depression of spontaneous motility; format: in vivo; details: orally
Arrhytmia CaCl2 = Arrhytmia CaCl2 - rat; format: in vivo; details: intravenously, 7.5 mg/kg
central nervous system [4] = test: Activity on central nervous system, mouse: Stereotipy (apomorphine); format: in vivo; details: orally, 40 mg/kg
central nervous system [5] = test: Activity on central nervous system, mouse: Stereotipy (amphetamine); format: in vivo; details: orally, 180 mg/kg
central nervous system [6] = test: Activity on central nervous system, mouse: Potentiation of barbituric hypnosis; format: in vivo; details: orally, 15 mg/kg
central nervous system [7] = test: Activity on central nervous system, mouse: Catalepsy (haloperidol); format: in vivo; details: orally, 15 mg/kg
ileum of Guinea pig = test: Antihystaminic activity, ileum of Guinea pig; details: Cavia porcellus, 10 γ/ml

Structure (SMILES): CCN(CC)CCOCCOC(=O)C1Oc2ccccc2OC1c1ccccc1 (stereo not drawn) [LR 349, n,n-diethylaminoethoxyethyl (3-phenyl-1,4-benzodioxan-2-yl)-carboxylate, citrate]
- Oedema from charragenin, % (Oedema from charragenin; 50 mg/kg): 50%
- ED50 (Antituxive activity): 39.5 mg/kg
- Stretching from acetic acid, % ([1]; 10 mg/kg): 20%
- LD50 [2]: 200 mg/kg
- Local anaesthetic activity, tail of mouse, DE50 (tail of mouse): 2.85 mg/mL
- Local anaesthetic activity, sciatic nerve of rat, DE50 (sciatic nerve of rat): 11.2 mg/mL

Structure (SMILES): O=C(C1Oc2ccccc2OC1c1ccccc1)N1CCN(c2ccccc2)CC1 (stereo not drawn) [LR 394, n'-phenyl-N-(3-phenyl-1,4-benzodioxan-2-ylcarbonyl)-piperazine.H2 0]
- Oedema from charragenin, % (Oedema from charragenin; 42 mg/kg): 50%
- Antituxive activity, % (Antituxive activity; 10 mg/kg): 64%
- ED50 [1]: 22 mg/kg
- Antipyresis, % (Antipyresis): 100%
- LD50 [2]: 330 mg/kg
- ED50 (central nervous system [3]; po, read-out: depression of spontaneous motility, DE50): 33.5 mg/kg

Structure (SMILES): CCN(CC)CCOC(=O)C1Oc2ccccc2OC1c1ccccc1 (stereo not drawn) [LR 520, n,n-diethylaminoethyl (3-phenyl-1,4-benzodioxan-2-yl)-carboxylate,citrate]
- Oedema from charragenin, % (Oedema from charragenin; 60 mg/kg): 9%
- Arrhytmia CaCl2 (Arrhytmia CaCl2): 40
- LD50 [2]: 300 mg/kg

Structure (SMILES): O=C(NO)C1Oc2ccccc2OC1c1ccccc1 (stereo not drawn) [LR 518, (3-phenyl-1,4-benzodioxan-2-yl)-carbohydroxamic acid]
- Oedema from charragenin, % (Oedema from charragenin; 40 mg/kg): 12%
- LD50 [2]: 175 mg/kg
- Stereotipy (apomorphine), % (central nervous system [4]): 30%

Structure (SMILES): O=C(C1Oc2ccccc2OC1c1ccccc1)N1CCOCC1 (stereo not drawn) [LR 519, n-(3-phenyl-1,4-benzodioxan-2-ylcarbonyl)-morpholine]
- Oedema from charragenin, % (Oedema from charragenin; 180 mg/kg): 15%
- LD50 [2]: 750 mg/kg
- Stereotipy (amphetamine), % (central nervous system [5]): 20%

Structure (SMILES): CCN(CC)CCNC(=O)C1Oc2ccccc2OC1c1ccccc1 (stereo not drawn) [LR 510, n-(n',n'-diethylaminoethyl)-(3-phenyl-1,4-benzodioxan-2-ylcarbonyl)-amine]
- Potentiation of barbituric hypnosis, % (central nervous system [6]): 20%
- LD50 [2]: 75 mg/kg
- Catalepsy (haloperidol), % (central nervous system [7]): 33%

Structure (SMILES): CC(C)NC(=O)C1Oc2ccccc2OC1c1ccccc1 (stereo not drawn) [LR 367, n-(3-phenyl-1,4-benzodioxan-2-ylcarbonyl)-isopropylamine]
- Oedema from charragenin, % (Oedema from charragenin; 200 mg/kg): 30%
- ED50 (Antituxive activity): 86 mg/kg
- ED50 [1]: 138 mg/kg
- LD50 [2]: > 3000 mg/kg
- depression of spontaneous motility, % (central nervous system [3]; 150 mg/kg): 32%

Structure (SMILES): O=C(OCCOCCN1CCOCC1)C1Oc2ccccc2OC1c1ccccc1 (stereo not drawn) [LR 348, morpholinoethoxyethyl (3-phenyl-1,4-benzodioxan-2-yl)-carboxylate,hydrochloride]
- Oedema from charragenin, % (Oedema from charragenin; 50 mg/kg): 40%
- ED50 (Antituxive activity): 50 mg/kg
- ED50 [1]: 15.6 mg/kg
- inhibition at 10 µg/mL (ileum of Guinea pig): 60%
- LD50 [2]: 250 mg/kg
- Local anaesthetic activity, tail of mouse, DE50 (tail of mouse): 2.70 mg/mL
- Local anaesthetic activity, sciatic nerve of rat, DE50 (sciatic nerve of rat): 12.2 mg/mL
